“Also recorded” adds a separate entry of the source.
System: DBA/1 mice
Assay: Pristane: DBA/1 strain lupus disease model
Format: in vivo, mouse
Description: Figure Legend: Female DBA/1 mice at 10-11 weeks of age were given an intraperitoneal injection of 0.5 ml pristane or PBS. Once-a-day oral dosing with Vehicle (Veh; 0.5% methyl-cellulose) or 300 mg/kg ER-892887 was begun 3.5 months after pristane injection for a total of 3 months treatment. (A) Mice were euthanized after 3 months of compound treatment, and anti-dsDNA and anti-RiboP titers were measured in blood plasma samples by ELISA (statistical significance determined by Mann-Whitney test). (B) Arthritis development was assessed monthly by visual scoring. (C) The expression of IFN-regulated genes in whole blood was measured by a qPCR panel after 3 months of treatment, and an IFN gene signature score was calculated (see Pharmacology Materials and Methods section for details regarding IFN score calculation).
Figure Legend: Female DBA/1 mice at 11-12 weeks of age were given an intraperitoneal injection of 0.5 ml of pristane or PBS. Once-a-day oral dosing with Vehicle (Veh; 0.5% methyl-cellulose) or 33, 100, or 300 mg/kg ER-892887 was begun 2 months after pristane injection for a total of 3 months treatment. Mice were euthanized after 3 months of compound treatment, and anti-dsDNA (A), -RiboP (B), -Sm/nRNP (C), and -Histone (D) titers were measured in blood plasma samples by ELISA (statistical significance determined by Mann-Whitney test). (E) Summary of mortality observed in the study during 3 months of compound treatment. (F) The expression of IFN-regulated genes in whole blood was measured by a qPCR panel at the last time point for Vehicle and 300 mg/kg ER-892887 treated mice, and an IFN gene signature score was calculated (see Pharmacology Materials and Methods section for details regarding IFN score calculation).
Figure Legend: Female DBA/1 mice at 11 weeks of age were given an intraperitoneal injection of 0.5 ml pristane or PBS. Once-a-day oral dosing with Vehicle (Veh; 0.5% methyl-cellulose) or 300 mg/kg ER-892887, 100 mg/kg hydroxychloroquine, 1 mg/kg prednisolone or 100 mg/kg mycophenolate was begun 2 months after pristane injection and continued for 3 months of treatment. (A) At the end of the 3 month treatment arthritis development was assessed by visual scoring of swelling and inflammation. (B) Mice were euthanized after 3 months of compound treatment, and anti-dsDNA, anti-histone, anti-Sm/RNP and anti-RiboP titers were measured in blood plasma samples by ELISA (statistical significance determined by Mann-Whitney test). ELISA values falling above or below the range of the standard curve were assigned a value equal to the highest or lowest valid measurement, as appropriate. (C) The expression of IFN-regulated genes in whole blood was measured by a qPCR panel after 3 months of treatment. […] (D) IFN scores of genes regulated by pristane in this experiment are shown.
FIG. 14 presents the effect of compound ER-892887 on arthritis and autoantibodies in the Pristane: DBA/1 strain lupus disease model. Figure Legend: Female DBA/1 mice at 10 weeks of age were given an intraperitoneal injection of 0.5 ml pristane or PBS. At 22 weeks of age, mice were randomized into groups with equivalent median anti-dsDNA titers and treated with Vehicle (Veh; 0.5% methyl-cellulose) alone or 300 mg/kg ER-892887 once-a-day orally (QD PO). Arthritis symptoms (swelling and inflammation) were recorded monthly by blinded observers. All mice were sacrificed at 34 weeks of age (12 weeks of treatment) and blood plasma autoantibody titers were determined by ELISA. Prior to termination paws were x-rayed and scored for bone damage and erosions by two blinded analysts. (A) Top—Arthritis scores were calculated monthly in vehicle and compound dosed-groups. (A) Bottom—X-ray scores were calculated after three months of treatment. (B) Autoantibody titers were measured in terminal blood plasma samples by ELISA (statistical significance determined by Mann-Whitney test). […]

Q: What does the source list for `COc1ccc([C@@H]2C[C@H](C(F)(F)F)n3nc(-c4ccc(C(=O)N5CCNCC5)cc4)cc3N2)cc1OC` [ER-892887, (4-((5S,7R)-5-(3,4-dimethoxyphenyl)-7-(trifluoromethyl)-4,5,6,7-tetrahydropyrazolo[1,5-a]pyrimidin-2-yl)phenyl)(piperazin-1-yl)methanone]?
A: IFN gene signature score: reduction; RNA-related reactivity such as anti-RiboP titers: particularly robust impact; arthritis severity: reduced arthritis severity; interferon gene signature score, comparison with three commonly used lupus treatments: suppressed the interferon gene signature score significantly; various auto-antibodies: suppressed; suppression of autoantibodies compared with hydroxychloroquine or prednisolone (at the doses tested): better; whole blood interferon-driven gene expression (qPCR panel): reduction; also recorded: suppressed

Reference: patent publication US9126999B2, “Tetrahydropyrazolopyrimidine compounds” (EISAI R&D MANAGEMENT CO., LTD., priority 2012, dated 2015)
